PubChem BioAssay (NCI)
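Cells were grown in 96-well plates and exposed to each compound for 48 hours at five concentrations; endpoints were interpolated linearly between bracketing concentrations, or set to the highest concentration if not reached. GI50 is the concentration that inhibits growth by half. TGI marks complete inhibition of growth.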

How the values were obtained:
Assay in all cases: growth of human tumour cells (NCI), 48 h
[1] = test system: TK-10 renal
[2] = test system: M14 melanoma
[3] = test system: HOP-92 NSCLC
[4] = test system: HCC-2998 colon
[5] = test system: MCF7 breast
[6] = test system: NCI-H460 lung
[7] = test system: SK-OV-3 ovarian
[8] = test system: A498 renal
[9] = test system: BT-549 breast
[10] = test system: UACC-62 melanoma
[11] = test system: CAKI-1 renal
[12] = test system: KM12 colon
[13] = test system: LOX IMVI melanoma
[14] = test system: SNB-19 CNS
[15] = test system: MDA-MB-435
[16] = test system: NCI/ADR-RES ovarian
[17] = test system: ACHN renal
[18] = test system: EKVX NSCLC
[19] = test system: SK-MEL-2 melanoma
[20] = test system: OVCAR-3 ovarian
[21] = test system: RPMI-8226 leukemia
[22] = test system: OVCAR-5 ovarian
[23] = test system: SF-295 CNS
[24] = test system: K-562 leukemia
[25] = test system: SK-MEL-5 melanoma
[26] = test system: PC-3 prostate
[27] = test system: SN12C renal
[28] = test system: SK-MEL-28 melanoma
[29] = test system: NCI-H23 lung
[30] = test system: HL-60(TB) leukemia
[31] = test system: T-47D breast
[32] = test system: A549 NSCLC
[33] = test system: IGROV1 ovarian
[34] = test system: U251 CNS
[35] = test system: MOLT-4 leukemia
[36] = test system: NCI-H522 lung
[37] = test system: MALME-3M melanoma
[38] = test system: 786-0 renal
[39] = test system: UACC-257 melanoma
[40] = test system: SF-539 CNS
[41] = test system: OVCAR-4 ovarian
[42] = test system: HT29 colon
[43] = test system: MDA-MB-231 breast
[44] = test system: HCT-116 colon
[45] = test system: DU-145 prostate
[46] = test system: HCT-15 colon
[47] = test system: RXF 393 renal
[48] = test system: NCI-H226 lung
[49] = test system: SW-620 colon
[50] = test system: SR leukemia
[51] = test system: SNB-75 CNS
[52] = test system: HS 578T breast
[53] = test system: OVCAR-8 ovarian
[54] = test system: HOP-62 NSCLC
[55] = test system: UO-31 renal
[56] = test system: SF-268 CNS
[57] = test system: COLO 205 colon
[58] = test system: CCRF-CEM leukemia

COC(=O)/C=C/c1cc(OC(C)=O)c2c(c1)C(C(=O)OC)C(c1ccc(OC(C)=O)c(OC(C)=O)c1)O2 (stereo not drawn)
GI50 [1]: 8.98 µM | TGI [1]: > 93.2 µM | GI50 [2]: 0.0411 µM | TGI [2]: 15.1 µM | GI50 [3]: 0.35 µM | TGI [3]: 24.8 µM | GI50 [4]: 0.461 µM | TGI [4]: 48.4 µM | GI50 [5]: 0.0353 µM | TGI [5]: 48.6 µM | GI50 [6]: 1.03 µM | TGI [6]: 13.6 µM | GI50 [7]: 2.46 µM | TGI [7]: > 73.9 µM | GI50 [8]: 0.948 µM | TGI [8]: 5.58 µM | GI50 [9]: 0.127 µM | TGI [9]: 2.27 µM | GI50 [10]: 0.298 µM | TGI [10]: 21.8 µM | GI50 [11]: 0.278 µM | TGI [11]: 94 µM | GI50 [12]: 0.334 µM | TGI [12]: 32.1 µM | GI50 [13]: 0.0597 µM | TGI [13]: > 83.3 µM | GI50 [14]: 0.131 µM | TGI [14]: > 100 µM | GI50 [15]: 0.0219 µM | TGI [15]: 0.0606 µM | GI50 [16]: 0.098 µM | TGI [16]: > 100 µM | GI50 [17]: 0.0779 µM | TGI [17]: 35.5 µM | GI50 [18]: 2.28 µM | TGI [18]: > 86 µM | GI50 [19]: 3.69 µM | TGI [19]: > 100 µM | GI50 [20]: 0.0374 µM | TGI [20]: 15.8 µM | GI50 [21]: 0.0574 µM | TGI [21]: 5.25 µM | GI50 [22]: 3.42 µM | TGI [22]: > 100 µM | GI50 [23]: 0.222 µM | TGI [23]: 14.1 µM | GI50 [24]: 0.0405 µM | TGI [24]: > 100 µM | GI50 [25]: 0.0572 µM | TGI [25]: 1.98 µM | GI50 [26]: 0.371 µM | TGI [26]: > 49 µM | GI50 [27]: 0.253 µM | TGI [27]: > 42.5 µM | GI50 [28]: 0.905 µM | TGI [28]: 59.7 µM | GI50 [29]: 0.171 µM | TGI [29]: > 100 µM | GI50 [30]: 0.0273 µM | TGI [30]: 0.114 µM | GI50 [31]: 3.11 µM | TGI [31]: > 76.8 µM | GI50 [32]: 1.35 µM | TGI [32]: > 56.7 µM | GI50 [33]: 0.589 µM | TGI [33]: > 100 µM | GI50 [34]: 0.11 µM | TGI [34]: > 50.9 µM | GI50 [35]: 0.0582 µM | TGI [35]: > 47.4 µM | GI50 [36]: 0.0654 µM | TGI [36]: 11.6 µM | GI50 [37]: 1.08 µM | TGI [37]: 56.6 µM | GI50 [38]: 0.488 µM | TGI [38]: > 56.8 µM | GI50 [39]: 13.7 µM | TGI [39]: > 77.6 µM | GI50 [40]: 0.0674 µM | TGI [40]: 2.41 µM | GI50 [41]: 0.345 µM | TGI [41]: 49.7 µM | GI50 [42]: 2.65 µM | TGI [42]: > 77.5 µM | GI50 [43]: 0.442 µM | TGI [43]: > 21.3 µM | GI50 [44]: 0.0499 µM | TGI [44]: > 51.4 µM | GI50 [45]: 0.131 µM | TGI [45]: > 100 µM | GI50 [46]: 0.0445 µM | TGI [46]: > 100 µM | GI50 [47]: 0.167 µM | TGI [47]: 55.2 µM | GI50 [48]: 3.68 µM | TGI [48]: 23.2 µM | GI50 [49]: 0.0468 µM | TGI [49]: > 100 µM | GI50 [50]: 0.0303 µM | TGI [50]: 30.4 µM | GI50 [51]: 0.0382 µM | TGI [51]: 56.7 µM | GI50 [52]: 0.0521 µM | TGI [52]: 68.2 µM | GI50 [53]: 0.224 µM | TGI [53]: > 72.9 µM | GI50 [54]: 0.438 µM | TGI [54]: > 100 µM | GI50 [55]: 0.99 µM | TGI [55]: > 72.3 µM | GI50 [56]: 0.617 µM | TGI [56]: > 100 µM | GI50 [57]: 3.43 µM | TGI [57]: > 50.6 µM | GI50 [58]: 0.0404 µM | TGI [58]: > 100 µM

CCN(Cc1c(F)cccc1OC)c1ccc(CO)c(Cl)c1
TGI [1]: 0.0536 µM | GI50 [2]: 19.7 µM | TGI [2]: 47.8 µM | GI50 [3]: 0.933 µM | TGI [3]: 10 µM | GI50 [4]: 7.33 µM | TGI [4]: 22.3 µM | GI50 [5]: 0.165 µM | TGI [5]: 16.1 µM | GI50 [6]: 0.201 µM | TGI [6]: 11.7 µM | GI50 [7]: 3.65 µM | TGI [7]: 19.9 µM | GI50 [8]: 0.0325 µM | TGI [8]: 0.106 µM | GI50 [9]: 17.6 µM | TGI [9]: 36.9 µM | GI50 [10]: 0.0961 µM | TGI [10]: 0.953 µM | GI50 [11]: 3.05 µM | TGI [11]: 35.5 µM | GI50 [12]: 15.9 µM | TGI [12]: 49.8 µM | GI50 [13]: 16.9 µM | TGI [13]: 33.1 µM | GI50 [14]: 24.2 µM | TGI [14]: > 100 µM | GI50 [15]: 16 µM | TGI [15]: 39 µM | GI50 [16]: 13.3 µM | TGI [16]: 43.1 µM | GI50 [17]: 16.8 µM | TGI [17]: 44.6 µM | GI50 [19]: 2.39 µM | TGI [19]: 21.7 µM | GI50 [20]: 0.253 µM | TGI [20]: 1.81 µM | GI50 [21]: 1.44 µM | TGI [21]: 23.1 µM | GI50 [22]: 0.0371 µM | TGI [22]: 0.242 µM | GI50 [23]: 0.0707 µM | TGI [23]: 1.88 µM | GI50 [24]: 0.623 µM | TGI [24]: 15.7 µM | GI50 [25]: 11.9 µM | TGI [25]: 24.2 µM | GI50 [26]: 17.1 µM | TGI [26]: 58.4 µM | GI50 [27]: 12.8 µM | TGI [27]: 26 µM | GI50 [28]: 14.7 µM | TGI [28]: 34.3 µM | GI50 [29]: 12.5 µM | TGI [29]: 39.2 µM | GI50 [30]: 13.2 µM | TGI [30]: 43.3 µM | GI50 [31]: 0.0467 µM | TGI [31]: 0.283 µM | GI50 [32]: 2.35 µM | TGI [32]: 23.1 µM | GI50 [33]: < 0.036 µM | GI50 [34]: 0.716 µM | TGI [34]: 26.7 µM | GI50 [35]: 17.4 µM | TGI [35]: 52.3 µM | GI50 [36]: 13 µM | TGI [36]: 29.6 µM | GI50 [37]: 14 µM | TGI [37]: 31.7 µM | GI50 [38]: 16.7 µM | TGI [38]: 38.9 µM | GI50 [39]: 0.0523 µM | TGI [39]: 0.226 µM | GI50 [40]: 16.6 µM | TGI [40]: 33.1 µM | GI50 [41]: 0.216 µM | TGI [41]: 13 µM | GI50 [42]: 1.47 µM | TGI [42]: 18.9 µM | GI50 [43]: 14.5 µM | TGI [43]: 40.9 µM | GI50 [44]: 0.0546 µM | TGI [44]: > 37.2 µM | GI50 [45]: 17.8 µM | TGI [45]: > 57.3 µM | GI50 [46]: 12.8 µM | TGI [46]: 41.5 µM | GI50 [47]: 10.9 µM | TGI [47]: 25.3 µM | GI50 [48]: 0.0328 µM | TGI [48]: 0.169 µM | GI50 [49]: 0.714 µM | TGI [49]: > 77 µM | GI50 [50]: 18.3 µM | TGI [50]: 55.5 µM | GI50 [51]: 14.5 µM | TGI [51]: 46.2 µM | GI50 [52]: 19.1 µM | TGI [52]: 53.4 µM | GI50 [53]: 12 µM | TGI [53]: 50.2 µM | GI50 [54]: 2.69 µM | TGI [54]: 25.5 µM | GI50 [55]: 14.9 µM | TGI [55]: 48.8 µM | GI50 [56]: 23.2 µM | TGI [56]: > 63.5 µM | GI50 [57]: 0.684 µM | TGI [57]: 7.43 µM | GI50 [58]: 20.9 µM | TGI [58]: > 79.1 µM
